Assay results published in patent US6417222B1, “[2-substituted-5-[3-thienyl)-benzyl]-2- ([2-isopropoxy-5-fluoro]-phenyoxy)-ethyl]-amine derivatives, method for the production and use thereof as medicaments” (Pierre Fabre Medicament, priority 1999, dated 2002).

What was measured:
D2 receptors = target: T1, D2 receptors (Rattus norvegicus, UniProt P61169); test: Inhibition of the behavior induced by methylphenidate (antidopaminergic activity in vivo); conditions: rats, oral administration, read-out: Normalization ED50
T1 construct: from tissue; host or cells: whole living rat (central nervous system)
T1 sequence (P61169 whole entry): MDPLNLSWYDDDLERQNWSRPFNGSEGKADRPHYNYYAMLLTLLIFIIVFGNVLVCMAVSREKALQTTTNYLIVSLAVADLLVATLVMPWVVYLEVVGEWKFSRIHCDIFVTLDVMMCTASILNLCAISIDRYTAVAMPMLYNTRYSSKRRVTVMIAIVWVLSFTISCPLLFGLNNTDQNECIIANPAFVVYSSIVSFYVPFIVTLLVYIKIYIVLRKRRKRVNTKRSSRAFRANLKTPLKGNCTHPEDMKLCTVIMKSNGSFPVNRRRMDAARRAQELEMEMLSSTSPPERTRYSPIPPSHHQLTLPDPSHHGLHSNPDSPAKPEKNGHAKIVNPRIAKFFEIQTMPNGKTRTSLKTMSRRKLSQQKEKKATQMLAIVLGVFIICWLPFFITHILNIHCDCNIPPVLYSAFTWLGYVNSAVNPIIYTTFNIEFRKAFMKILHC
Description: (§1) 2—Evaluation of the antagonist activity of the D2 receptors and of the cataleptogenic effects of the compounds of the invention in vivo

receptors of the D2 type = receptors of the D2 type (Homo sapiens, UniProt P14416); test: Affinity for D2 receptors by displacement of (3H) YM-09151-2; format: binding; conditions: mean of at least 3 experiments, read-out: D2 pKi (converted)
Sequence of receptors of the D2 type (P14416 whole entry): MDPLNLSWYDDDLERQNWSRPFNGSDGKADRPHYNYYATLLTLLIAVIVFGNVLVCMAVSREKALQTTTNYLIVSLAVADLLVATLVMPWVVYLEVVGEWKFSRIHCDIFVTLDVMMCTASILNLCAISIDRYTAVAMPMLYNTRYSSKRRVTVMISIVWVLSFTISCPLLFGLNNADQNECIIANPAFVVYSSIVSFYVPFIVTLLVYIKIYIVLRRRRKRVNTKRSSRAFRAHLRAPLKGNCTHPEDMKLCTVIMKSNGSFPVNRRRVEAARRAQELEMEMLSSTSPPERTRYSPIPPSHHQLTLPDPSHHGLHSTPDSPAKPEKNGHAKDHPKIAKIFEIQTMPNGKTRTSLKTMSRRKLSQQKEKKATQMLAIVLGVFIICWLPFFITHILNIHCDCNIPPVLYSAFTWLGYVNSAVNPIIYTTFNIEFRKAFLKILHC
Method: 1—Measurement of the affinity of the compounds of the invention for the D2 receptors.
The affinity of the compounds of the invention for the receptors of the D2 type was determined by measuring the displacement of (^3H) YM-09151-2 (NET-1004 70-87 Ci/mmol), according to the method described in Naunyn-Schimiedeberg's Arch. Pharmacol. Methods, 1985, 329, 333. The pKi values (−log Ki) are given in the form of a mean ±SEM of at least 3 experiments.

[1] = Cataleptogenic power (extrapyramidal side effects); conditions: rat, in vivo; rats, oral administration; read-out: Catalepsy ED50
Description: as §1
The test for evaluating the propensity of the products of the invention to cause side effects of extrapyramidal order is based on their cataleptogenic power, measured in rats, according to the method described in Eur. J. Pharmacol. 1996, 313, 25.

Ki (receptors of the D2 type) [nM]	SMILES	ED50 (D2 receptors) [mg/kg]	ED50 [1] [mg/kg]
	Cc1nc2n(c(=O)c1CCN1CCC(c3noc4cc(F)ccc34)CC1)CCCC2 [Risperidone, reference compound]	6.5	
0.355	CC(C)Oc1ccc(F)cc1OCCNCc1cccc(-c2ccsc2)c1 [la, [3-(3-Thienyl)benzyl]-[2-([5-fluoro-2-isopropoxy]-phenoxy)ethyl]amine]	0.7	> 40
